The subject of data set [1] is S-ADH from Pseudomonas species 6307. The conditions noted are these: cited from earlier work.
In data set [2] the target is T1, acetone carboxylase from X. autotrophicus strain Py2 (Xanthobacter versatilis, UniProt Q8RM03+Q8RM04).
T1 sequence (Q8RM03 1-776): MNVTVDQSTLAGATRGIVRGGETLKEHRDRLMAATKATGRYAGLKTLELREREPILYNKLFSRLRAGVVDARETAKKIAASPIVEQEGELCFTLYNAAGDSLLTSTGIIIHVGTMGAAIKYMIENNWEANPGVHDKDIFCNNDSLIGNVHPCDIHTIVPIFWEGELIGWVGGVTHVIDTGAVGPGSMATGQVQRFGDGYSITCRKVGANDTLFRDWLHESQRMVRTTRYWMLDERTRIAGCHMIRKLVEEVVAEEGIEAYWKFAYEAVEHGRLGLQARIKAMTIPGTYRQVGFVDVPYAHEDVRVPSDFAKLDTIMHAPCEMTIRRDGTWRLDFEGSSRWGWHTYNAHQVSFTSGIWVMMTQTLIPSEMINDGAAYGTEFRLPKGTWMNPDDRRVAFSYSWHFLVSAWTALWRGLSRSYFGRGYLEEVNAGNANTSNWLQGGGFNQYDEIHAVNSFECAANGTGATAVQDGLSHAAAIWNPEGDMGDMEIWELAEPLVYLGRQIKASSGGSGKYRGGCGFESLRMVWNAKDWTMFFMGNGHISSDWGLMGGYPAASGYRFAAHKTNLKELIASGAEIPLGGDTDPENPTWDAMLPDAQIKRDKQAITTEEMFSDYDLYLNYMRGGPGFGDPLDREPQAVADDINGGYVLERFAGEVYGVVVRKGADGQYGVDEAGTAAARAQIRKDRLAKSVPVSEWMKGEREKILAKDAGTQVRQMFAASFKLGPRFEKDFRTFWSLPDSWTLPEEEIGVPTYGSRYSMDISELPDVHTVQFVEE
T1 sequence (Q8RM04 1-717): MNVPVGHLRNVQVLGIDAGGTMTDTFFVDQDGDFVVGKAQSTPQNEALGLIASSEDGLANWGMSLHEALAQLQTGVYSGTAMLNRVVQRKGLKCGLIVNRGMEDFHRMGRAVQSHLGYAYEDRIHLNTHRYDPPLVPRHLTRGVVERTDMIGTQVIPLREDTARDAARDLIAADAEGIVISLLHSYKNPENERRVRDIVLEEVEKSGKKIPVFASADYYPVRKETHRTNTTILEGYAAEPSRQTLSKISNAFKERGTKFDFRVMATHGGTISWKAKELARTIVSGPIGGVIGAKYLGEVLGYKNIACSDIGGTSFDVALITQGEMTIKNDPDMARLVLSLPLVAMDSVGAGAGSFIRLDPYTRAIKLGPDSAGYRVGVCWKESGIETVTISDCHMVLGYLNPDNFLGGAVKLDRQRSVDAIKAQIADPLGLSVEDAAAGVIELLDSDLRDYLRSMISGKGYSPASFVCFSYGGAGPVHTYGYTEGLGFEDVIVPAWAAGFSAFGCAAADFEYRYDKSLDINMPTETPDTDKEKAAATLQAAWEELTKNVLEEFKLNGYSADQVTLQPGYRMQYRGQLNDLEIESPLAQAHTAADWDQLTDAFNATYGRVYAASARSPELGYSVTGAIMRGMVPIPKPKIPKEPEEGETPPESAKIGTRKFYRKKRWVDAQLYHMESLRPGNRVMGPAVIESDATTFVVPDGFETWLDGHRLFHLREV
T1 sequence (Q8RM02 2-168 partner limits assumed): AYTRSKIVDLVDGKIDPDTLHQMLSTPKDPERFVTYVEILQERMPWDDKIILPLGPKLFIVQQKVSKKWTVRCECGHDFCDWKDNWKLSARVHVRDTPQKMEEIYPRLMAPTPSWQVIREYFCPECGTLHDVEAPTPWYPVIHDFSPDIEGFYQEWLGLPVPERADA
The note with it: cited from earlier work.

For another data set, the target named is T2, S-ADH from T. brockii (Thermoanaerobacter brockii, UniProt P14941).
T2 sequence (P14941 1-352): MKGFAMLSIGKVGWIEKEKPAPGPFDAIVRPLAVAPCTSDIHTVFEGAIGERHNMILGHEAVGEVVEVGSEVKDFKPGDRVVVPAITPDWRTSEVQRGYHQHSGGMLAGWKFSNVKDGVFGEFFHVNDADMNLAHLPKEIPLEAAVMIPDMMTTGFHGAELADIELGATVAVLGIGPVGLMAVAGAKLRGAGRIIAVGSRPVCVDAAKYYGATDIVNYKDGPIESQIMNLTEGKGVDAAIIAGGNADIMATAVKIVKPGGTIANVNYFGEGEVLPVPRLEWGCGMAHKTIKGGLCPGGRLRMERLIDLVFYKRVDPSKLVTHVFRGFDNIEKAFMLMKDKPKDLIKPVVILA
The data set is described as follows: S-ADH spectrophotometric assay, T. brockii S-ADH. Type of data set: biochemical, Thermoanaerobium brockii. The conditions noted are these: for Relative S-ADH Activity (%) T. brockii, ketone reduction: ketone reduction rates, pH 6.2, 2.5 mM substrate, 0.2 mM NADPH, acetone = 100; for Relative S-ADH Activity (%) T. brockii, alcohol oxidation: alcohol oxidation rates, pH 7.6, 2.5 mM substrate, 0.2 mM NADP+, 2-propanol = 100, NA = no activity detected. The procedure: […] Assays were pre-incubated for 1.5 min. at 30° C. with all assay components except substrate. Assays were initiated by addition of substrate (2.5 mM) and monitored over time by measuring the change in absorbance at 340 nm (∈340 of 6.22 mM^−1·cm^−1 for NADH).

For data set [3], the system named is secondary alcohol dehydrogenase from R. rhodochrous PNKb1. The note with it: R. rhodochrous PNKb1 enzyme; cited from earlier work.
In data set [4] the test system is acetone carboxylase from Rhodobacter capsulatus strain B10. The note with it: cited from earlier work.
The conditions of data set [5]: as reported by NIST; cited from earlier work.

Each structure is given as a SMILES string. Read-outs that look alike come from different tables or passages of the source.

In the case of `CCO` [Ethanol], the inhibition by ethanol is recorded as 0% in data set [1] (in the presence of 10 mM ethanol) and 30% in data set [1] (in the presence of 100 mM ethanol).
On to `CCC(C)=O` [2-Butanone], for which, in data set [2], the “carboxylation rate relative to that of acetone” value is listed as 40%. For the same compound, the “Relative S-ADH Activity (%) T. brockii, ketone reduction” value at S-ADH from T. brockii was 67%.
In general, Km refers to the substrate concentration at which the rate is half of its maximum. For `CC(C)O` [2-Propanol], the Km in data set [3] is 12 mM. In addition, the “Relative S-ADH Activity (%) T. brockii, alcohol oxidation” value on S-ADH from T. brockii is on record as 100%.
In the case of `CCC(C)O` (centres unmarked) [2-Butanol], at S-ADH from T. brockii, the “Relative S-ADH Activity (%) T. brockii, alcohol oxidation” value was found to be 121%.
Take `CCCO` [1-Propanol]: in data set [3], the Km was 18 mM.
Regarding `CC(C)=O` [Acetone, acetone], the Michaelis constant (Km) in data set [4] was 0.0082 mM; in data set [2] (read-out: apparent Km), 0.0078 mM. Further, the Vmax in data set [4] is recorded as 0.291 μmol acetone consumed·min^−1mg^−1 protein; in data set [2], 0.206 μmol acetone consumed·min^−1·mg^−1 protein. Besides, the “Relative S-ADH Activity (%) T. brockii, ketone reduction” value at S-ADH from T. brockii is reported as 100%. Moreover, the “Henry's Law constant” value in data set [5] is 24 M·atm^−1.

The values are drawn from patent publication US7794994B2 (Kemeta, LLC, priority 2001, dated 2010).
